# Measured values published in patent publication US20250345512A1, “COMBINATION SODIUM-GLUCOSE COTRANSPORTER INHIBITOR (SGLTI) INSULIN THERAPY FOR GLYCEMIC CONTROL IN TYPE 1 DIABETES” (University of Virginia Patent Foundation, priority 2022, published 2025).
# Test system: participants with T1D
# Experiment: Randomized crossover clinical trial (NCT04201496): CGM glycemic outcomes with 5 mg daily empagliflozin adjunctive to AID (Control-IQ, CIQ) or PLGS (Basal-IQ, BIQ)
# Assay type: in vivo, human
# Protocol: FIG. 2 presents a study analysis relative to baseline, control IQ (CIQ) (e.g., AID), and basal IQ (BIQ) (e.g., PLGS) implementation, according to investigation that is demonstrable of one or more embodiments herein. Therein, an experimental arm (G1, G2) providing an initial daily dose of 5 mg empagliflozin (EMPA) is depicted against a control arm (G3, G4) without such dosing (NOEMPA). Relative characteristics of the analysis are provided below.
# Study Design: A single-center, randomized, controlled, unblinded, crossover clinical trial (NCT04201496) compared four parallel groups, two groups in the experimental arm (EMPA) with 5 mg daily empagliflozin as adjunctive therapy to PLGS or AID, and two groups in the control arm (NOEMPA) with no drug and with a PLGS system (Basal-IQ, Tandem Diabetes Care) or AID system (Control-IQ, Tandem Diabetes Care). The groups within each arm differed from one another in the order of the randomly assigned crossover technological intervention, relative to PLGS being followed by AID or AID being followed by PLGS, respectively (FIG. 4). The study protocol was approved by the University of Virginia Institutional Review Board (IRB). An investigational device exemption (IDE), including an investigational new drug (IND) application for empagliflozin, was approved by the FDA. Safety aspects were overseen by an external data and safety monitoring board (DSMB). Participants: Major inclusion criteria were T1D treated with insulin for at least one year, use of continuous subcutaneous insulin infusion therapy for at least six months, age 18-65 yrs., no use of glucose lowering agents other than insulin, and Hb1Ac<9% (75 mmol/mol). Randomization: A (1:1:1:1) randomization assigned participants to either Group 1, AID-EMPA (4 weeks) followed by PLGS-EMPA (2 weeks), Group 2, PLGS-EMPA (2 weeks) followed by AID-EMPA (4 weeks), Group 3, AID-NOEMPA (4 weeks) followed by PLGS-NOEMPA (2 weeks), and Group 4, PLGS-NOEMPA (2 weeks) followed by AID-NOEMPA (4 weeks). Procedures: After confirmation of eligibility, participants underwent study equipment and medication training (experimental arm), or only study equipment training (control arm). Study equipment consisted of Dexcom G6® CGM (Dexcom Inc., San Diego, CA), Contour® Next blood glucose (Ascensia Diabetes Care, Basel, Switzerland) and Precision Xtra® blood ketone meters (Abbott, Alameda, CA) with their respective test strips; infusion sets, and the use of the t:slim X2™ insulin pump with Basal-IQ or Control-IQ technologies (Tandem Diabetes Care, San Diego, CA), according to randomization. […] Participants in the experimental arm were asked to record two days of baseline ketone values before initiating the use of the study drug. Thereafter, participants were directed to use the study CGM with EMPA for 1-2 weeks. A tolerance to the medication was assessed prior to the starting of the next study phase, including adherence to the protocol, ketone testing 2-4 times per day with monitored values not greater than 0.6 mmol/L on at least two successive occasions (the first testing upon waking in a fasted state), no adverse events relating to perineal infection or symptomatic postural hypotension, and no evidence of significant hypoglycemia <54 mg/dL, or any other listed adverse effects of the medication. Participants in the control arm were directed to use the study CGM for 1-2 weeks. Sample Size: The total sample size was projected to be 40 participants, assuming 1) 1:1:1:1 randomization; 2) 90% power and type 1 error a=0.01, further reinforcing the feasibility of hierarchical analyses. The projected recruitment sample was n=50, to accommodate up to 20% attrition rate without sacrificing statistical power. Analytical methods: For the primary analysis, TIR during the day in the 4-week AID period was compared between the two EMPA groups versus the two NOEMPA groups using a linear mixed-effects regression model while adjusting for pre-randomization HbAlc and age. […]
# [1] = EMPA minus NOEMPA on same insulin system, adjusted for HbA1c
# [2] = daytime (7:00-23:00), CIQ-EMPA vs. BIQ-NOEMPA, BIQ-EMPA vs. CIQ-NOEMPA
# [3] = daytime (7:00-23:00), CIQ-EMPA vs. CIQ-NOEMPA, BIQ-EMPA vs. BIQ-NOEMPA
# [4] = daytime (7:00-23:00), n = 16, mean ± SD
# [5] = daytime (7:00-23:00), n = 16, median (IQR)
smiles,measurement,setting,value
"OC[C@H]1O[C@@H](c2ccc(Cl)c(Cc3ccc(O[C@H]4CCOC4)cc3)c2)[C@H](O)[C@@H](O)[C@@H]1O [BIQ-EMPA, empagliflozin]",24/7 HBGI - median (IQR),"24/7, n = 17",3.3(1.8-4.7)
same,24/7 LBGI - median (IQR),"24/7, n = 17",0.7(0.6-1)
same,24/7 glucose level <70 mg/dL (<3.9 mmol/L) - median % time (IQR),"24/7, n = 17",1.7(0.9-2.7) %
same,24/7 Mean glucose level -,"24/7, n = 17, mean ± SD",141 ± 30 mg/dL
same,Difference (95% CI): 24/7 HBGI,[1],−3.7(−6.5 to −1)
same,Difference (95% CI): 24/7 LBGI,[1],0.1(−0.3 to 0.6)
same,Difference (95% CI): 24/7 Mean glucose level,[1],−24.1(−42.2 to −6) mg/dL
same,Difference (95% CI): 24/7 glucose level <70 mg/dL % time,[1],0.2(−1.7 to 2.1) percentage points
same,Difference (95% CI): Daytime CGM CV,[1],−4.0(−6.8 to −1.2) %
same,Difference (95% CI): Daytime CGM SD,[1],−13.2(−21.6 to −4.8) mg/dL
same,Difference (95% CI): daytime glucose % Time in range of 70 to 180 mg/dL,"EMPA minus NOEMPA on same insulin system, adjusted for pre-randomization HbA1c",16.5(7.3 to 26) ^ percentage points
same,Primary: daytime glucose % Time in range of 70 to 180 mg/dL (3.9-10.0 mmol/L),"daytime 7:00 to 23:00 h, n = 17, mean ± SD",80 ± 14%
same,Difference (95% CI): % CGM time <50 mg/dL (<2.8 mmol/L),[2],−0.3 percentage points
same,Difference (95% CI): % CGM time <60 mg/dL (<3.3 mmol/L),[2],−0.2 percentage points
same,Difference (95% CI): % CGM time >180 mg/dL (>10.0 mmol/L),[2],−9.5 percentage points
same,Difference (95% CI): % CGM time >250 mg/dL (>13.9 mmol/L),[2],−2.2 percentage points
same,Difference (95% CI): % CGM time >300 mg/dL (>16.7 mmol/L),[2],−0.4 percentage points
same,Difference (95% CI): CGM HBGI,[2],−1.9
same,Difference (95% CI): CGM LBGI,[2],0.3
same,Difference (95% CI): CGM SD,[2],-7.1 mg/dL
same,Difference (95% CI): Mean CGM glucose,[2],-14.9 mg/dL
same,Difference (95% CI): % CGM time 70-140 mg/dL (<3.9-7.8 mmol/L),[3],17.6 percentage points
same,Difference (95% CI): % CGM time >180 mg/dL (>10.0 mmol/L),[3],−16.7 percentage points
same,Difference (95% CI): % CGM time >250 mg/dL (>13.9 mmol/L),[3],−7.6 percentage points
same,Difference (95% CI): % CGM time >300 mg/dL (>16.7 mmol/L),[3],−2.7 percentage points
same,Difference (95% CI): CGM HBGI,[3],−4
same,Difference (95% CI): CGM LBGI,[3],−0.3
same,Difference (95% CI): CGM SD,[3],-13.2 mg/dL
same,Difference (95% CI): Mean CGM glucose,[3],-23.8 mg/dL
same,Difference (95% CI): % CGM time <70-180 mg/dL (3.9-10.0 mmol/L),"daytime (7:00-23:00), CIQ-EMPA vs. CIQ-NOEMPA, BIQ-EMPA vs. BIQ-NOEMPA, listed as PLGS-EMPA",16 percentage points
same,% CGM time 70-140 mg/dL (3.9-7.8 mmol/L),[4],58.1 ± 16.5%
same,% CGM time 70-180 mg/dL (3.9-10.0 mmol/L),[4],80 ± 14.5%
same,CGM CV (%),[4],35.7 ± 3.5%
same,CGM SD,[4],45 ± 14.6 mg/dL
same,Mean CGM glucose,[4],139 ± 26 mg/dL
same,% CGM time 70-180 mg/dL (3.9-10.0 mmol/L),"daytime (7:00-23:00), n = 16, mean ± SD, listed as PLGS-EMPA",80±14.5%
same,% CGM time <50 mg/dL (<2.8 mmol/L),[5],0(0-0.4) %
same,% CGM time <60 mg/dL (<3.3 mmol/L),[5],0.5(0.1-0.9) %
same,% CGM time <70 mg/dL (<3.9 mmol/L),[5],1.7(0.9-2.7) %
same,% CGM time >180 mg/dL (>10.0 mmol/L),[5],11.3(5.3-22.4) %
same,% CGM time >250 mg/dL (>13.9 mmol/L),[5],1.7(0.1-4.4) %
same,% CGM time >300 mg/dL (>16.7 mmol/L),[5],0.1(0-0.8) %
same,CGM HBGI,[5],2.8(1.6-4.9)
same,CGM LBGI,[5],0.7(0.6-0.9)
same,Daytime CGM CV - %,"daytime, n = 17, mean ± SD",30.4 ± 3.5%
same,Daytime CGM SD -,"daytime, n = 17, mean ± SD",44.9 ± 14.7 mg/dL
same,Difference: CGM HBGI,"overall, CIQ-EMPA vs. BIQ-NOEMPA, BIQ-EMPA vs. CIQ-NOEMPA",−1.6
